Measured values published in patent US6307014A (priority 1998, dated 2001).

System: cholinergic synapse of the buccal ganglion
Type: cell-based, Aplysia californica

With “Gla Cys Cys Gla Asp Gly BrW Cys Cys Thr Ala Ala OHP [P11.1]” the “reversibility of the IPSC decrease” value was “reversed by washing”.
